Measurements reported in ChEMBL document CHEMBL5303573, “Mapping human microbiome drug metabolism by gut bacteria and their genes” (Nature, 2019).

Assays:
[1] = bacteroides fragilis, 12 h, 2 µM
Description: The drug is tested on Bacteroides fragilis strain: DS-208 for biotransformation. The drug concentrations were measured before and after a 12-h incubation by liquid-chromatography-coupled mass spectrometry (LC–MS)

[2] = akkermansia muciniphila, 12 h, 2 µM
Description: The drug is tested on Akkermansia muciniphila strain: ATCC BAA-835 for biotransformation. The drug concentrations were measured before and after a 12-h incubation by liquid-chromatography-coupled mass spectrometry (LC–MS)

[3] = The drug is tested on Bifidobacterium ruminantium strain: fecal isolate for biotransformation. The drug concentrations were measured before and after a 12-h incubation by liquid-chromatography-coupled mass spectrometry (LC–MS); conditions: 2 µM
[4] = The drug is tested on Clostridium symbiosum strain: ATCC14940 for biotransformation. The drug concentrations were measured before and after a 12-h incubation by liquid-chromatography-coupled mass spectrometry (LC–MS); conditions: 2 µM
[5] = anaerostipes sp., 12 h, 2 µM
Description: The drug is tested on Anaerostipes sp. strain: fecal isolate for biotransformation. The drug concentrations were measured before and after a 12-h incubation by liquid-chromatography-coupled mass spectrometry (LC–MS)

[6] = The drug is tested on Bacteroides pectinophilus strain: ATCC43243 for biotransformation. The drug concentrations were measured before and after a 12-h incubation by liquid-chromatography-coupled mass spectrometry (LC–MS); conditions: 2 µM
[7] = bacteroides intestinalis, 12 h, 2 µM
Description: The drug is tested on Bacteroides intestinalis strain: DSM17393 for biotransformation. The drug concentrations were measured before and after a 12-h incubation by liquid-chromatography-coupled mass spectrometry (LC–MS)

[8] = bacteroides fragilis, 12 h, 2 µM; remark: listed apart in the source
Description: The drug is tested on Bacteroides fragilis strain: 3397 (T10) for biotransformation. The drug concentrations were measured before and after a 12-h incubation by liquid-chromatography-coupled mass spectrometry (LC–MS)

[9] = The drug is tested on Eggerthella lenta strain: ATCC25559 for biotransformation. The drug concentrations were measured before and after a 12-h incubation by liquid-chromatography-coupled mass spectrometry (LC–MS); conditions: 2 µM
[10] = segatella copri, 12 h, 2 µM
Description: The drug is tested on Prevotella copri strain: DSM18205 for biotransformation. The drug concentrations were measured before and after a 12-h incubation by liquid-chromatography-coupled mass spectrometry (LC–MS)

[11] = The drug is tested on Bacteroides uniformis strain: ATCC8492 for biotransformation. The drug concentrations were measured before and after a 12-h incubation by liquid-chromatography-coupled mass spectrometry (LC–MS); conditions: 2 µM
[12] = The drug is tested on Bacteroides dorei strain: DSM17855 for biotransformation. The drug concentrations were measured before and after a 12-h incubation by liquid-chromatography-coupled mass spectrometry (LC–MS); conditions: phocaeicola dorei, 2 µM
[13] = The drug is tested on Bacteroides vulgatus strain: ATCC8482 for biotransformation. The drug concentrations were measured before and after a 12-h incubation by liquid-chromatography-coupled mass spectrometry (LC–MS); conditions: phocaeicola vulgatus, 2 µM
[14] = bacteroides eggerthii, 12 h, 2 µM
Description: The drug is tested on Bacteroides eggerthii strain: DSM20697 for biotransformation. The drug concentrations were measured before and after a 12-h incubation by liquid-chromatography-coupled mass spectrometry (LC–MS)

[15] = The drug is tested on Clostridium asparagiforme strain: DSM15981 for biotransformation. The drug concentrations were measured before and after a 12-h incubation by liquid-chromatography-coupled mass spectrometry (LC–MS); format: ADME; design: dose 2 uM, timepoint 0 vs 12 hours; conditions: enterocloster asparagiformis, 2 µM
[16] = roseburia intestinalis, 12 h, 2 µM
Description: The drug is tested on Roseburia intestinalis strain: L1-82 for biotransformation. The drug concentrations were measured before and after a 12-h incubation by liquid-chromatography-coupled mass spectrometry (LC–MS)

[17] = The drug is tested on Alistipes indistinctus strain: DSM22520 for biotransformation. The drug concentrations were measured before and after a 12-h incubation by liquid-chromatography-coupled mass spectrometry (LC–MS); conditions: 2 µM
[18] = The drug is tested on Ruminococcus lactaris strain: ATCC29176 for biotransformation. The drug concentrations were measured before and after a 12-h incubation by liquid-chromatography-coupled mass spectrometry (LC–MS); conditions: 2 µM
[19] = bacteroides thetaiotaomicron, 12 h, 2 µM
Description: The drug is tested on Bacteroides thetaiotaomicron strain: VPI-5482 for biotransformation. The drug concentrations were measured before and after a 12-h incubation by liquid-chromatography-coupled mass spectrometry (LC–MS)

[20] = bacteroides thetaiotaomicron, 12 h, 2 µM; remark: listed apart in the source
Description: The drug is tested on Bacteroides thetaiotaomicron strain: 7330 for biotransformation. The drug concentrations were measured before and after a 12-h incubation by liquid-chromatography-coupled mass spectrometry (LC–MS)

| Structure (SMILES) | Bacterial Biotransformation [1] | Bacterial Biotransformation [2] | Bacterial Biotransformation [3] | Bacterial Biotransformation [4] | Bacterial Biotransformation [5] | Bacterial Biotransformation [6] | Bacterial Biotransformation [7] | Bacterial Biotransformation [8] | Bacterial Biotransformation [9] | Bacterial Biotransformation [10] | Bacterial Biotransformation [11] | Bacterial Biotransformation [12] | Bacterial Biotransformation [13] | Bacterial Biotransformation [14] | Bacterial Biotransformation [15] | Bacterial Biotransformation [16] | Bacterial Biotransformation [17] | Bacterial Biotransformation [18] | Bacterial Biotransformation [19] | Bacterial Biotransformation [20] |
| --- | --- | --- | --- | --- | --- | --- | --- | --- | --- | --- | --- | --- | --- | --- | --- | --- | --- | --- | --- | --- |
| O=C(O)c1cc(/N=N/c2ccc(S(=O)(=O)Nc3ccccn3)cc2)ccc1O [SULFASALAZINE] | Compound metabolized | Compound metabolized | Compound metabolized | Compound metabolized | Compound metabolized | Compound NOT metabolized | Compound metabolized | Compound metabolized | Compound metabolized | Compound metabolized | Compound metabolized | Compound metabolized | Compound metabolized | Compound metabolized | Compound metabolized | Compound metabolized | Compound metabolized | Compound metabolized | Compound metabolized | Compound metabolized |
| CCS(=O)(=O)CCn1c([N+](=O)[O-])cnc1C [TINIDAZOLE] | Compound metabolized | Compound metabolized | Compound metabolized | Compound metabolized | Compound metabolized | Compound NOT metabolized | Compound metabolized | Compound metabolized | Compound metabolized | Compound metabolized | Compound metabolized | Compound metabolized | Compound metabolized | Compound metabolized | Compound metabolized | Compound metabolized | Compound metabolized | Compound metabolized | Compound metabolized | Compound metabolized |
